MIC data for seven molecules are collected here from DBAASP.

Molecules are shown by their SMILES. In brackets after ≈: the same amount, converted by molar mass. A value given as a limit tells only on which side of the number the result lay.

Test systems include Escherichia coli ML-35p; Escherichia coli D31; Streptococcus mutans; Escherichia coli UB1005; Escherichia coli DC2.
Holding throughout (experiment): ≥ marks a high value that may be exact or a test limit, other limits are often not marked, values filed in µg/mL are converted to µM
In assay [1] the test system is Escherichia coli ATCC 25922.
In assay [2] the test system is Staphylococcus aureus ATCC 25923.
The test system of assay [3] is Candida albicans ATCC 20032.
The subject of assay [4] is Bacillus subtilis ATCC 6633.
Assay [5] relates to Candida albicans CIB 45437.
The subject of assay [6] is Staphylococcus aureus CIB 85462.
The subject of assay [7] is Escherichia coli CIB 84492.
Assay [8] has as its system Candida albicans ATCC 2002.
For assay [9], the system named is Staphylococcus aureus ATCC 2592.
Assay [10] deals with Pseudomonas fluorescens ATCC 13525.
For assay [11], the system named is Pseudomonas aeruginosa ATCC 27853.
The subject of assay [12] is Staphylococcus aureus ST1065.
For assay [13], the system named is Staphylococcus aureus ATCC BAA-44.
The subject of assay [14] is Staphylococcus aureus NCTC 10788.
In assay [15] the test system is Enterococcus faecalis ATCC 29212.
Assay [16] relates to Candida parapsilosis ATCC 22019.
Assay [17] has as its system Candida albicans NCYC 1467.
In assay [18] the test system is Staphylococcus aureus ATCC 43300.
Assay [19] has as its system Candida tropicalis ATCC 13803.
The subject of assay [20] is Staphylococcus aureus ATCC 29213.
In assay [21] the test system is Candida albicans ATCC 14053.
For assay [22], the system named is Streptococcus gordonii Challis DL1.
The test system of assay [23] is Lacticaseibacillus casei ATCC 4646.
Assay [24] relates to Streptococcus sanguinis NY101.
In assay [25] the test system is Veillonella atypica PK1910.
Assay [26] concerns Streptococcus mitis ATCC 903.
The test system of assay [27] is Staphylococcus epidermidis C621.
Assay [28] concerns Corynebacterium xerosis C875.

Take `CC[C@H](C)[C@H](NC(=O)CN)C(=O)NCC(=O)NCC(=O)N[C@@H](CCCCN)C(=O)N[C@H](C(=O)N[C@@H](CC(C)C)C(=O)NCC(=O)NCC(=O)N[C@@H](CC(C)C)C(=O)N[C@@H](CCCCN)C(=O)N[C@H](C(=O)N[C@@H](C)C(=O)N[C@@H](CC(C)C)C(=O)N[C@@H](CCCCN)C(=O)NCC(=O)N[C@@H](C)C(=O)N[C@@H](C)C(=O)N[C@@H](CCCCN)C(=O)N[C@@H](CCC(=O)O)C(=O)N[C@@H](CC(C)C)C(=O)N[C@@H](C)C(=O)N[C@@H](CO)C(=O)N[C@H](C(=O)N[C@@H](Cc1ccc(O)cc1)C(=O)N[C@@H](CC(C)C)C(=O)N[C@@H](Cc1cnc[nH]1)C(N)=O)[C@@H](C)O)[C@@H](C)O)[C@@H](C)CC` [GIGGKILGGLKTALKGAAKELASTYLH]: the MIC – broadly, the smallest concentration in the dilution series that meets the test's criterion for growth inhibition – is 7.05 µM (≈ 18.8 µg/mL) in assay [1], 3.52 µM (≈ 9.4 µg/mL) in [2], at least 37.5 µM in assay [3] and at least 37.5 µM in [4].

Regarding `CC[C@H](C)[C@H](NC(=O)CN)C(=O)N[C@@H](Cc1ccccc1)C(=O)NCC(=O)N[C@@H](CCCCN)C(=O)N[C@H](C(=O)N[C@@H](CC(C)C)C(=O)NCC(=O)N[C@H](C(=O)NCC(=O)N[C@@H](CCCCN)C(=O)N[C@@H](CCCCN)C(=O)N[C@H](C(=O)N[C@@H](CC(C)C)C(=O)N[C@H]1CSSC[C@@H](C(=O)O)NC(=O)[C@H](CCSC)NC(=O)CNC(=O)[C@H](CO)NC(=O)[C@H](CC(C)C)NC(=O)CNC1=O)C(C)C)C(C)C)[C@@H](C)CC` [GIFGKILGVGKKVLCGLSGMC], the MIC was determined as 30.8 µM (≈ 63.9 µg/mL) in assay [5]; 7.69 µM (≈ 16 µg/mL) in assay [6]; 15.4 µM (≈ 32 µg/mL) in assay [1]; 7.69 µM (≈ 16 µg/mL) in assay [2]; 15.4 µM (≈ 32 µg/mL) in assay [7].

As for `CC[C@H](C)[C@H](NC(=O)[C@H](CCCN=C(N)N)NC(=O)[C@H](CC(C)C)NC(=O)[C@H](C)NC(=O)[C@H](CO)NC(=O)CNC(=O)[C@H](CCSC)NC(=O)[C@@H](N)Cc1ccccc1)C(=O)N[C@@H](C)C(=O)N[C@@H](C)C(=O)N[C@@H](CCCCN)C(=O)N[C@H](C(=O)N[C@@H](CC(C)C)C(=O)N1CCC[C@H]1C(=O)N[C@@H](C)C(=O)N[C@@H](C)C(=O)N[C@@H](CC(C)C)C(=O)N[C@H]1CSSC[C@@H](C(=O)O)NC(=O)[C@H](CCCCN)NC(=O)[C@H](CCCCN)NC(=O)[C@H](Cc2ccccc2)NC(=O)[C@H]([C@@H](C)CC)NC(=O)[C@H](CCC(N)=O)NC1=O)C(C)C` [FMGSALRIAAKVLPAALCQIFKKC], the minimal inhibitory concentration (MIC) in [8] is 19.4 µM (≈ 50 µg/mL); in assay [9], 2.42 µM (≈ 6.25 µg/mL); in assay [4], 2.42 µM (≈ 6.25 µg/mL); in [10], at least 38.8 µM.

Consider `CC[C@H](C)[C@H](NC(=O)[C@H](C)NC(=O)[C@H](CO)NC(=O)[C@@H](NC(=O)[C@H](C)NC(=O)[C@@H](NC(=O)[C@@H]1CCCN1C(=O)[C@@H](NC(=O)[C@H](CCSC)NC(=O)CNC(=O)[C@H](CC(C)C)NC(=O)[C@@H](N)CC(C)C)[C@@H](C)CC)C(C)C)[C@@H](C)CC)C(=O)N[C@@H](CO)C(=O)N[C@@H](C)C(=O)N[C@@H](CC(C)C)C(=O)N[C@@H](CO)C(=O)N[C@@H](CCCCN)C(=O)N[C@@H](CC(C)C)C(N)=O` [LLGMIPVAISAISALSKL], for which the MIC in assay [11] was over 100 µM; in assay [12] it was at least 100 µM; against Escherichia coli ML-35p, at least 100 µM; in [13], at least 100 µM; in [1], over 100 µM; in assay [14], 17.8 µM (≈ 32 µg/mL). Moreover, the MIC in assay [2] is 25 µM (≈ 44.9 µg/mL); in [15] it was 100 µM (≈ 180 µg/mL); in assay [16], at least 100 µM; in [17] it was at least 71.2 µM; in [18], over 100 µM.

Consider `CC[C@H](C)[C@@H]1NC(=O)CNC(=O)[C@H](CCCCN)NC(=O)[C@H](CC(N)=O)NC(=O)[C@H](CCCN=C(N)N)NC(=O)[C@H](CCCN=C(N)N)NC(=O)[C@@H](NC(=O)[C@H](CO)NC(=O)[C@H](CCC(N)=O)NC(=O)[C@H](CO)NC(=O)[C@H](CC(N)=O)NC(=O)[C@H](CCCN=C(N)N)NC(=O)[C@@H](NC(=O)CNC(=O)[C@@H](N)CCC(N)=O)C(C)C)CSSC[C@@H]2NC(=O)[C@H](CCCCN)NC(=O)[C@H](C(C)C)NC(=O)[C@H](CCC(N)=O)NC(=O)[C@H](C)NC(=O)CNC(=O)[C@H](CC(C)C)NC(=O)[C@@H]3CSSC[C@H](NC1=O)C(=O)N[C@@H](C(C)C)C(=O)N1CCC[C@H]1C(=O)N[C@@H]([C@@H](C)CC)C(=O)N[C@@H](CCCN=C(N)N)C(=O)N[C@@H](CSSC[C@@H](C(=O)N[C@@H](CCCN=C(N)N)C(=O)N[C@@H](CCCN=C(N)N)C(=O)N[C@@H](CCCCN)C(=O)O)NC2=O)C(=O)N1CCC[C@H]1C(=O)NCC(=O)N[C@@H](CO)C(=O)N[C@@H](CCSC)C(=O)N[C@@H](CCCN=C(N)N)C(=O)N[C@@H](CCC(N)=O)C(=O)N[C@@H]([C@@H](C)CC)C(=O)NCC(=O)N[C@@H]([C@@H](C)O)C(=O)N3` [QGVRNSQSCRRNKGICVPIRCPGSMRQIGTCLGAQVKCCRRK], for which the MIC in [19] was 4.87 µM (≈ 22.6 µg/mL); in assay [11], 19.1 µM (≈ 88.6 µg/mL); in assay [20] it was 19.1 µM (≈ 88.6 µg/mL); in assay [21], 9.66 µM (≈ 44.8 µg/mL); against Escherichia coli D31 it was 4.87 µM (≈ 22.6 µg/mL).

As for `CC[C@H](C)[C@H](N)C(=O)N[C@@H](CCCCN)C(=O)N[C@@H](CCC(N)=O)C(=O)N[C@@H](CC(C)C)C(=O)N[C@@H](CC(C)C)C(=O)N[C@@H](Cc1cnc[nH]1)C(=O)N[C@@H](Cc1ccccc1)C(=O)N[C@@H](Cc1ccccc1)C(=O)N[C@@H](CCC(N)=O)C(=O)N[C@@H](CCCN=C(N)N)C(=O)N[C@@H](Cc1ccccc1)C(=O)NCC(=O)NCC(=O)NCC(=O)N[C@@H](CCCN=C(N)N)C(=O)N[C@@H](Cc1c[nH]c2ccccc12)C(=O)N[C@@H](CCCN=C(N)N)C(=O)N[C@@H](Cc1c[nH]c2ccccc12)C(=O)N[C@@H](CCCN=C(N)N)C(=O)N[C@@H](Cc1c[nH]c2ccccc12)C(=O)N[C@@H](Cc1ccccc1)C(N)=O` [IKQLLHFFQRFGGGRWRWRWF], the MIC came to 11.3 µM (≈ 32 µg/mL) in assay [22]; 5.67 µM (≈ 16 µg/mL) in [23]; 5.67 µM (≈ 16 µg/mL) in [24]; 2.83 µM (≈ 8 µg/mL) in [25]; 2.83 µM (≈ 8 µg/mL) with Streptococcus mutans; 22.7 µM (≈ 64 µg/mL) in assay [26].

`C[C@H](NC(=O)[C@H](C)NC(=O)[C@H](CCCCN)NC(=O)[C@H](CCCCN)NC(=O)[C@@H](N)CCCCN)C(=O)N[C@@H](C)C(=O)N[C@@H](Cc1ccccc1)C(=O)N[C@@H](C)C(=O)N[C@@H](C)C(=O)N[C@@H](Cc1c[nH]c2ccccc12)C(=O)N[C@@H](C)C(=O)N[C@@H](C)C(=O)N[C@@H](Cc1ccccc1)C(=O)N[C@@H](C)C(=O)N[C@@H](CCCCN)C(=O)N[C@@H](CCCCN)C(=O)N[C@@H](CCCCN)C(N)=O` [KKKAAAFAAWAAFAKKK]: the MIC in [11] was over 32 µM; in assay [27] it was at least 32 µM; in assay [28], 4 µM (≈ 7.34 µg/mL); against Escherichia coli UB1005 it was at least 32 µM; in [1], over 32 µM; in assay [2] it was over 32 µM. Besides, the MIC is 16 µM (≈ 29.4 µg/mL) in the assay on Escherichia coli DC2, over 32 µM in assay [15] and 16 µM (≈ 29.4 µg/mL) in [4].
